Measured values taken from ChEMBL document CHEMBL5614417, “Discovery of AMPs from random peptides via deep learning-based model and biological activity validation” (Eur J Med Chem, 2024).
Where a SMILES comes first, the peptide text is derived from it.

Assays:
Assay type in all cases: functional
Acinetobacter baumannii [1] = test: Antibacterial activity against multidrug resistant Acinetobacter baumannii 2 incubated for 18 hrs by visual inspection method
Acinetobacter baumannii [2] = test: Antibacterial activity against multidrug resistant Acinetobacter baumannii 1 incubated for 18 hrs by visual inspection method
Escherichia coli [3] = test: Antibacterial activity against ESBL Escherichia coli 3 incubated for 18 hrs by visual inspection method
Escherichia coli [4] = test: Antibacterial activity against ESBL Escherichia coli 4 incubated for 18 hrs by visual inspection method
Escherichia coli [5] = test: Antibacterial activity against ESBL Escherichia coli 2 incubated for 18 hrs by visual inspection method
Acinetobacter baumannii [6] = test: Antibacterial activity against Acinetobacter baumannii ATCC 19606 incubated for 18 hrs by visual inspection method
Escherichia coli [7] = test: Antibacterial activity against Escherichia coli ATCC 25922 incubated for 18 hrs by visual inspection method
Escherichia coli [8] = test: Antibacterial activity against ESBL Escherichia coli 5 incubated for 18 hrs by visual inspection method
Acinetobacter baumannii [9] = test: Antibacterial activity against multidrug resistant Acinetobacter baumannii 4 incubated for 18 hrs by visual inspection method
Escherichia coli [10] = test: Antibacterial activity against ESBL Escherichia coli 1 incubated for 18 hrs by visual inspection method
Acinetobacter baumannii [11] = test: Antibacterial activity against multidrug resistant Acinetobacter baumannii 5 incubated for 18 hrs by visual inspection method
Klebsiella pneumoniae = test: Antibacterial activity against Klebsiella pneumoniae ATCC 700603 incubated for 18 hrs by visual inspection method
Acinetobacter baumannii [12] = test: Antibacterial activity against multidrug resistant Acinetobacter baumannii 3 incubated for 18 hrs by visual inspection method
Staphylococcus aureus [13] = test: Induction of resistance development against Staphylococcus aureus assessed as fold increase in MIC after 21 passages
[14] = test system: Staphylococcus epidermidis; test: Antibacterial activity against Staphylococcus epidermidis ATCC 12228 incubated for 18 hrs by visual inspection method
Bacillus subtilis = test: Antibacterial activity against Bacillus subtilis ATCC 23857 incubated for 18 hrs by visual inspection method
Staphylococcus aureus [15] = test: Antibacterial activity against Staphylococcus aureus ATCC 25923 incubated for 18 hrs by visual inspection method

| Compound | MIC (Acinetobacter baumannii [1]) [µg/mL] | MIC (Acinetobacter baumannii [2]) [µg/mL] | MIC (Escherichia coli [3]) [µg/mL] | MIC (Escherichia coli [4]) [µg/mL] | MIC (Escherichia coli [5]) [µg/mL] | MIC (Acinetobacter baumannii [6]) [µg/mL] | MIC (Escherichia coli [7]) [µg/mL] | MIC (Escherichia coli [8]) [µg/mL] | MIC (Acinetobacter baumannii [9]) [µg/mL] | MIC (Escherichia coli [10]) [µg/mL] | MIC (Acinetobacter baumannii [11]) [µg/mL] | MIC (Klebsiella pneumoniae) [µg/mL] | MIC (Acinetobacter baumannii [12]) [µg/mL] | fold change (FC) (Staphylococcus aureus [13]) | MIC [14] [µg/mL] | MIC (Bacillus subtilis) [µg/mL] | MIC (Staphylococcus aureus [15]) [µg/mL] |
| --- | --- | --- | --- | --- | --- | --- | --- | --- | --- | --- | --- | --- | --- | --- | --- | --- | --- |
| POLYMYXIN B | 1.88 | 1.88 | 1.88 | 1.88 | 1.88 | 1.88 | 1.88 | 1.88 | 1.88 | 1.88 | 1.88 | 1.88 | 1.88 |  |  |  |  |
| O=C(O)c1cn(C2CC2)c2cc(N3CCNCC3)c(F)cc2c1=O |  |  |  |  |  |  |  |  |  |  |  |  |  | 16 |  |  |  |
| CC[C@H](C)[C@H](NC(=O)[C@H](CC(C)C)NC(=O)[C@H](CS)NC(=O)[C@@H]1CCCN1C(=O)[C@H](CC(C)C)NC(=O)[C@@H](NC(=O)[C@H](CS)NC(=O)[C@H](Cc1ccccc1)NC(=O)[C@@H](N)Cc1c[nH]c2ccccc12)[C@@H](C)CC)C(=O)N[C@@H](Cc1ccccc1)C(=O)N[C@@H](CCCCN)C(=O)N[C@@H](Cc1c[nH]c2ccccc12)C(=O)N[C@@H](CCC(N)=O)C(N)=O (H-WFCILPCLIFKWQ-NH2) |  |  |  |  |  | > 60 | > 60 |  |  |  |  | > 60 |  |  | > 60 | > 60 | > 60 |
| CSCC[C@H](NC(=O)[C@H](Cc1c[nH]c2ccccc12)NC(=O)[C@H](CCSC)NC(=O)[C@H](Cc1c[nH]c2ccccc12)NC(=O)[C@@H](NC(=O)[C@H](Cc1c[nH]c2ccccc12)NC(=O)[C@H](Cc1c[nH]c2ccccc12)NC(=O)[C@H](CCSC)NC(=O)[C@H](CCCCN)NC(=O)[C@H](CS)NC(=O)CNC(=O)[C@H](Cc1ccccc1)NC(=O)[C@@H](N)CO)C(C)C)C(N)=O (H-SFGCKMWWVWMWM-NH2) |  |  |  |  |  | > 60 | > 60 |  |  |  |  | > 60 |  |  | > 60 | > 60 | > 60 |
